Source: the C3SDB collision cross section collection
Values joined by “and” are separate entries in the source; they are usually repeats but may differ in a detail not shown here. Equal entries are not always repeated.

Conditions: instrument: TW, calibrated with polyalanine and drug standards

Structure (SMILES)	collision cross section (N2) ([M+H]+)	also measured
COC(=O)Nc1nc2ccc(Sc3ccccc3)cc2[nH]1 [FENBENDAZOLE]	170.8 Å²	–
CCC(C(N)=O)c1ccccc1 (stereo unspecified) [FENBUTYRAMIDE]	135.8 Å²	–
CC1(C)OC(=O)C(OCC2CC2)=C1c1ccc(S(C)(=O)=O)cc1 [FIROCOXIB]	181.1 Å²	–
COC(=O)C[C@H]1C(C)(C)[C@H](OC(C)=O)[C@@H]2CC3=C4CC(=O)O[C@@H](c5ccoc5)[C@]4(C)CC[C@@H]3C1(C)C2=O [FISSINOLIDE]	213.3 Å²	–
OC(Cn1cncn1)(Cn1cncn1)c1ccc(F)cc1F [FLUCONAZOLE]	163.4 Å²	–
Nc1[nH]c(=O)ncc1F [FLUCYTOSINE]	118.4 Å²	–
COc1ccc(-c2coc3cc(O)ccc3c2=O)cc1 [FORMONONETIN]	156.8 Å²	–
CCOC(=O)c1ncn2c1CN(C)C(=O)c1cc(F)ccc1-2 [FUMAZENIL]	165.6 Å²	–
O=C1OCCN1/N=C/c1ccc([N+](=O)[O-])o1 [FURAZOLIDONE]	–	collision cross section (N2) ([M]+): 144.2 Å²
NS(=O)(=O)c1cc(C(=O)O)c(NCc2ccco2)cc1Cl [FUROSEMIDE]	169.3 Å²	–
CC(C)=CCC[C@]1(C)C=Cc2c(O)c3c(c(CC=C(C)C)c2O1)O[C@]12C(=C[C@@H]4C[C@H]1C(C)(C)O[C@@]2(C/C=C(/C)C(=O)O)C4=O)C3=O [GAMBOGIC ACID]	239 Å²	–
N[C@@H](CCC(=O)N[C@@H](CS)C(=O)NCC(=O)O)C(=O)O [GLUTATHIONE]	165.7 Å²	–
C[C@H](CCC(=O)NCC(=O)O)[C@H]1CC[C@H]2[C@@H]3[C@H](O)C[C@@H]4C[C@H](O)CC[C@]4(C)[C@H]3C[C@H](O)[C@]12C [GLYCOCHOLIC ACID]	205.2 Å²	collision cross section (N2) ([M+Na]+): 200.8 Å²
O=c1c(O)c(-c2ccc(O)c(O)c2)oc2c(O)c(O)cc(O)c12 [GOSSYPETIN]	165.9 Å²	–
O=c1c(O)c(-c2ccc(O)c(O)c2)oc2c(O[C@@H]3O[C@H](CO)[C@@H](O)[C@H](O)[C@H]3O)c(O)cc(O)c12 [GOSSYPIN]	199.6 Å²	–
CN(C)Cc1c[nH]c2ccccc12 [GRAMINE]	134.9 Å²	–
COC1=CC(=O)C[C@@H](C)[C@]12Oc1c(Cl)c(OC)cc(OC)c1C2=O [GRISEOFULVIN]	178.6 Å²	–
CC1=C(CCC(=O)O)c2cc3nc(cc4[nH]c(cc5[nH]c(cc1n2)c(C)c5C(C)O)c(C)c4C(C)O)C(C)=C3CCC(=O)O (stereo unspecified) [HAEMATOPORPHYRIN]	248.4 Å²	–
CC1(C)O[C@@H]2C[C@H]3[C@@H]4CCC5=CC(=O)CC[C@]5(C)[C@@]4(F)[C@@H](O)C[C@]3(C)[C@]2(C(=O)CCl)O1 [HALCINONIDE]	200.9 Å²	–
COc1ccc2c(c1)[nH]c1c(C)nccc12 [HARMINE]	144.5 Å²	–
COc1ccc([C@@H]2CC(=O)c3c(O)cc(O)cc3O2)cc1O [HESPERETIN]	169.1 Å²	–
COc1ccc([C@@H]2CC(=O)c3c(O)cc(O[C@@H]4O[C@H](CO[C@@H]5O[C@@H](C)[C@H](O)[C@@H](O)[C@H]5O)[C@@H](O)[C@H](O)[C@H]4O)cc3O2)cc1O [HESPERIDIN]	–	collision cross section (N2) ([M+Na]+): 227 Å²

Structure (SMILES)	collision cross section (N2) ([M+H]+)	also measured
COc1cc(O)c2c(=O)cc(C)oc2c1CC=C(C)C [HETEROPEUCENIN, METHYL ETHER]	161.7 Å²	–
COc1ccc(-c2oc3cc(OC)c(OC)c(OC)c3c(=O)c2OC)cc1OC [HEXAMETHYLQUERCETAGETIN]	191.2 Å²	–
CCCCCCc1ccc(O)cc1O [HEXYLRESORCINOL]	129 Å²	–
C[C@]12CCC(=O)C=C1CC[C@@H]1[C@@H]2[C@@H](O)C[C@@]2(C)[C@H]1CC[C@]2(O)C(=O)COC(=O)CCC(=O)O [HYDROCORTISONE HEMISUCCINATE]	212.4 Å²	–
CCCCC(=O)O[C@]1(C(=O)CO)CC[C@H]2[C@@H]3CCC4=CC(=O)CC[C@]4(C)[C@H]3[C@@H](O)C[C@@]21C [HYDROCORTISONE VALERATE]	212.5 Å²	–
C[C@]12CCC(=O)C=C1CC[C@@H]1[C@@H]2[C@@H](O)C[C@@]2(C)[C@H]1CC[C@]2(O)C(=O)CO [HYDROCORTISONE]	185.1 Å²	–
CC(C)Cc1ccc(C(C)C(=O)O)cc1 (stereo unspecified) [IBUPROFEN]	144 Å²	–
COc1ccc(-c2oc3c(CC=C(C)C)c(O[C@@H]4O[C@H](CO)[C@@H](O)[C@H](O)[C@H]4O)cc(O)c3c(=O)c2O[C@@H]2O[C@@H](C)[C@H](O)[C@@H](O)[C@H]2O)cc1 [ICARIIN]	260.8 Å²	–
O=P1(NCCCl)OCCCN1CCCl (stereo unspecified) [IFOSFAMIDE]	147 Å²	–
COc1ccc2c(c1)c(CC(=O)O)c(C)n2C(=O)c1ccc(Cl)cc1 [INDOMETHACIN]	179 Å²	–
CC(C(=O)O)c1ccc(N2Cc3ccccc3C2=O)cc1 (stereo unspecified) [INDOPROFEN]	166.6 Å²	–
Oc1c(I)cc(I)c2cccnc12 [IODOQUINOL]	143.7 Å²	–
COc1cc(-c2coc3cc(OCc4ccccc4)c(OC)c(O)c3c2=O)cc(O)c1OC [IRIGENIN, 7-BENZYL ETHER]	198.6 Å² and 212.4 Å²	–
COc1cc(-c2coc3cc(OCc4ccccc4)c(OC)c(O)c3c2=O)cc(OCc2ccccc2)c1OC [IRIGENIN, DIBENZYL ETHER]	234.1 Å²	–
C=C1CCC2C(CC2(C)C)C(=O)CCC1O (stereo unspecified) [ISOKOBUSONE]	146 Å²	–
CC(C)NCC(O)c1ccc(O)c(O)c1 (stereo unspecified) [ISOPROTERENOL]	149.4 Å²	–
C/C=C/c1ccc2c(c1)OCO2 [ISOSAFROLE]	138.4 Å²	–
CCC(C)n1ncn(-c2ccc(N3CCN(c4ccc(OCC5COC(Cn6cncn6)(c6ccc(Cl)cc6Cl)O5)cc4)CC3)cc2)c1=O (stereo unspecified) [ITRACONAZOLE]	248.8 Å²	–
O=c1c(O)c(-c2ccc(O)cc2)oc2cc(O)cc(O)c12 [KAEMPFEROL]	159.2 Å²	–
COC1=CC(=O)O[C@@H](/C=C/c2ccccc2)C1 [KAWAIN]	149.4 Å²	–
CC(C(=O)O)c1cccc(C(=O)c2ccccc2)c1 (stereo unspecified) [KETOPROFEN]	157.5 Å²	–
O=c1cc(CO)occ1O [KOJIC ACID]	121.9 Å²	–

Structure (SMILES)	collision cross section (N2) ([M+H]+)	also measured
CC(=O)NCCc1ccc(O)c(-c2c(O)c(O)c3c(c2O)C(=O)c2c(cc(O)c(C(=O)O)c2C(=O)O)C3=O)c1 [LACCAIC ACID A]	218.5 Å²	–
OC[C@H]1O[C@@H](O[C@@H]2[C@@H](CO)O[C@](O)(CO)[C@H]2O)[C@H](O)[C@@H](O)[C@H]1O [LACTULOSE]	169.2 Å²	–
CC(=O)O[C@H]1C[C@H](O[C@H]2[C@@H](O)C[C@H](O[C@H]3[C@@H](O)C[C@H](O[C@H]4CC[C@@]5(C)[C@H](CC[C@@H]6[C@@H]5C[C@@H](O)[C@]5(C)[C@@H](C7=CC(=O)OC7)CC[C@]65O)C4)O[C@@H]3C)O[C@@H]2C)O[C@H](C)[C@H]1O[C@@H]1O[C@H](CO)[C@@H](O)[C@H](O)[C@H]1O [LANATOSIDE C]	289.4 Å²	–
CCN1C[C@]2(OC(=O)c3ccccc3NC(C)=O)CC[C@H](OC)C34C1C(C[C@@H]32)[C@@]1(O)C[C@H](OC)[C@H]2C[C@@H]4[C@]1(O)[C@H]2OC [LAPPACONITINE]	232.5 Å²	–
C[N+](C)(C)C[C@H](O)CC(=O)[O-] [LEVOCARNITINE]	132.9 Å²	–
C[C@H]1COc2c(N3CCN(C)CC3)c(F)cc3c(=O)c(C(=O)O)cn1c23 [LEVOFLOXACIN]	188.5 Å²	–
C[C@H](CCC(=O)O)[C@H]1CC[C@H]2[C@@H]3CC[C@@H]4C[C@H](O)CC[C@]4(C)[C@H]3CC[C@]12C [LITHOCHOLIC ACID]	210.8 Å²	–
CCCCCc1c2c(cc(O)c1C(=O)O)OC(=O)c1c(cc(OC)cc1C(=O)CCCC)O2 [LOBARIC ACID]	209.7 Å²	–
CCOC(=O)Nc1nc2ccccc2[nH]1 [LOBENDAZOLE]	141.7 Å²	–
O=C1CC[C@]23/C=C/C(=O)NCCCCNCCCNC(=O)/C=C/c4ccc(c2c4)O[C@@H]3C1 [LUNARINE]	203.4 Å²	–
OC[C@@H]1CCCN2CCCC[C@H]12 [LUPININE]	135.3 Å²	–
O=c1c2cc(O)c(O)cc2oc2cc(O)c([C@@H]3O[C@H](CO)[C@@H](O)[C@H](O)[C@H]3O)c(O)c12 [MANGIFERIN]	189.8 Å²	–
COC(=O)Nc1nc2ccc(C(=O)c3ccccc3)cc2[nH]1 [MEBENDAZOLE]	171.2 Å²	–
CC(=O)O[C@]1(C(C)=O)CC[C@H]2[C@@H]3C[C@H](C)C4=CC(=O)CC[C@]4(C)[C@H]3CC[C@@]21C [MEDROXYPROGESTERONE ACETATE]	197.2 Å²	–
CC(=O)[C@H]1CC[C@H]2[C@@H]3C[C@H](C)C4=CC(=O)CC[C@]4(C)[C@H]3[C@@H](O)C[C@]12C [MEDRYSONE]	183.2 Å²	–
CCN(CC)CCNC(=O)COc1ccc(OC)cc1 [MEFEXAMIDE]	171.2 Å²	–
O[C@@H](c1cc(C(F)(F)F)nc2c(C(F)(F)F)cccc12)[C@H]1CCCCN1 [MEFLOQUINE]	181.8 Å²	–
CNC[C@H](O)[C@@H](O)[C@H](O)[C@H](O)CO [MEGLUMINE]	139 Å²	–
CC1=C2C(O)C(=O)OC3CC4C(C)(C)C(=O)C=C[C@]4(C)C(CC1)[C@]23C (stereo partly specified) [MEROGEDUNIN]	179.8 Å²	–
Cn1cc[nH]c1=S [METHIMAZOLE]	117.2 Å² and 117.1 Å²	–
COC(C)(C)CCC[C@H](C)C/C=C/C(C)=C/C(=O)OC(C)C [METHOPRENE (S)]	–	collision cross section (N2) ([M+Na]+): 187 Å²
